row,melting point [°C],Compound
1,87 to 89,OCCCc1cc(Cl)cc2nc(Cc3cccc(Cl)c3)oc12
2,61 to 62,O=C(O)CCCCCCCCC=Cc1cccs1
3,261 to 263,CNc1cc(NS(=O)(=O)c2ccc(F)cc2)nc(NC)n1
4,167 to 168,O=C(Nc1ccc(F)cn1)c1ccc(NCc2ccccc2)nc1
5,86 to 88,C=CCC(=O)NCC(CO)c1cccc2ccc(OC)cc12 (stereo not given)
6,206,COc1ccc2nccc(CCC[C@@H]3CCN(CCCc4cccc(F)c4)C[C@@H]3C(=O)O)c2c1
7,74 to 76,O=c1ccc(C(F)(F)F)cn1Cc1c(Cl)cccc1Cl
8,235,Cn1c(=O)n(CCCC(NS(=O)(=O)c2ccc(-c3ccc(Cl)cc3)cc2)C(=O)NO)c(=O)c2ccccc21 (stereo not given)
9,118 to 120,CCCCN1C(=O)CSC(=NO)C1C (stereo not given)
10,226 to 227,O=C(O)c1ccc(O)c(NC(=O)C(CS)Cc2ccccc2)c1 (stereo not given)
11,191 to 194,COc1ccc(-n2nc(Cl)cc2-c2ccc(S(C)(=O)=O)cc2)cc1C#N
12,116 to 119,COC1=CCCSC1c1cc(N2C(=O)C3=C(CCCC3)C2=O)ccc1Cl (stereo not given)
13,111 to 113,COc1cc(NC(=O)CCCCCBr)c2nccc(C)c2c1
14,160 to 162,CN(C)C(=O)NS(=O)(=O)C=Cc1ccccc1
15,69 to 71,CS(=O)(=O)SCCCCC(=O)O
16,92 to 94,CS(=O)(=O)Nc1ccc(CCBr)cc1
17,71 to 72,CCCCCCCCCCCC(=O)NCCCSc1ccncc1
18,134 to 137,Cc1ccc([N+](=O)[O-])cc1CNC(=O)c1ccccc1
19,147 to 148,CC(=O)Nc1ccc2nc(CN(C(C)C)C(C)C)ccc2c1
20,98 to 99,CNCc1cn(S(=O)(=O)c2cccnc2)c(-c2ccccc2)c1F
21,68,CCOC(=O)c1cc(-c2ccccc2)oc1-c1ccc(OC)c(OC)c1
22,117,CCCC(=O)CS(N)(=O)=O
23,109 to 112,Cc1ccc(S(=O)(=O)n2ccc3c(OCC4CO4)cccc32)cc1 (stereo not given)
24,191 to 192,CCCOc1c(C2CCN(CCCCNC(=O)c3ccc(-c4ccc(C(F)(F)F)cc4)cc3)CC2)ccc2ccccc12
25,186,CC(=O)NC[C@H]1CN(c2ccc(I)c(F)c2)C(=O)O1

row,melting point [°C],Compound
1,102 to 103,c1ccc(NC2CCc3cccnc3C2)cc1 (stereo not given)
2,182 to 183,CSc1ccc(CNC(=O)c2sc(NC(C)=O)nc2CCc2ccc(NC(=O)OC(C)(C)C)cc2)cc1
3,186 to 190,O=S(=O)(c1ccccc1)c1c[nH]c2c(C3CCNCC3)cccc12
4,98 to 105,COc1cc(N2CCCN(C)CC2)ccc1Nc1ncc2ccc(-c3ccccc3N(C)S(C)(=O)=O)n2n1
5,225 to 227,O=C(Nc1ccc2nc(CN3CCCC3)ccc2c1)c1ccc(-c2ccc(Cl)cc2)nc1
6,98 to 99,CCOC(=O)/C=C/c1cn(Cc2cc(OCc3ccccc3)cc(OCc3ccccc3)c2)cc1-c1ccccc1
7,152 to 155,Cc1ccc(N2CCN(c3c(C)c(C)c4c(c3C)CC(C)(CO)O4)CC2)cc1 (stereo not given)
8,131 to 133,CC(=CC(=O)NCCCCCC(=O)NO)c1ccccc1
9,153 to 155,Cn1c(C(F)(F)F)cc(=O)n(-c2cc(OC(=O)Nc3cccc(C(F)(F)F)c3)c(Cl)cc2F)c1=O
10,176,CCOC(=O)c1csc(C)c1S(=O)(=O)NC(=O)n1nc(OC)n(C)c1=O
11,121 to 123,COC(=O)C(CCSC)NC(=O)c1ccc(NC(=O)C2CC(O)CN2C(=O)OC(C)(C)C)cc1-c1ccccc1 (stereo not given)
12,218 to 221,N#Cc1cc2c(cc1O)OCC21C(=O)N(CC2CCCO2)c2ccccc21 (stereo not given)
13,> 300,Nc1nc(Nc2ccc3nc[nH]c3c2)sc1C(=O)c1cc(Cl)sc1Cl
14,178 to 179,O=C(O)c1ccccc1OCCN1CCC(c2cn(Cc3ccc(Cl)s3)c3ccccc23)CC1
15,200 to 203,O=C1c2ccc(SCc3ccccc3)cc2C(=O)c2cc3ccccc3cc21
16,160 to 162,COC(=O)[C@@H]1OCN(NS(=O)(=O)c2ccc([N+](=O)[O-])cc2)[C@H]1c1ccccc1
17,190,CS(=O)(=O)c1ccc(-c2nnc(Cl)cc2-c2ccc(Cl)cc2)cc1
18,165 to 166,COc1cc(COc2nn(-c3ccccc3)cc2/C=C/c2nnc(C)[nH]2)ccc1OCc1nc(-c2ccco2)oc1C
19,150 to 152,COC(=O)c1ccccc1S(=O)(=O)N1CCC2(C=Cc3ccccc32)CC1
20,204 to 206,COc1nccc2cc(S(N)(=O)=O)oc12
21,135 to 140,CCCCOC(=O)c1cc(O)c(O)c(C#N)c1
22,82 to 84,CCC(CC)Nc1cc(C)nc(Cl)c1C(=O)OC
23,145 to 150,O=C(O)c1ccccc1C=Cc1cccc(Br)c1
24,143,Cc1ccc(NC(=S)NC(=O)c2ccccc2)c(Cl)c1
25,193 to 196,O=C(Nc1ccc(-n2nc(C(F)(F)F)cc2C2CC2)c(F)c1)c1c(F)cccc1F

row,melting point [°C],Compound
1,164 to 165,O=C1CCC2(CCN1)Cc1ccccc1C2
2,75,Cc1cc(-n2ccnc2)c2cccc(OCc3c(Cl)ccc(S(=O)(=O)N4CCC[C@H]4C(=O)NCCCN(C)C(=O)OC(C)(C)C)c3Cl)c2n1
3,170 to 173,CS(=O)c1ncc2ccc(=O)n(C3CCCC3)c2n1 (stereo not given)
4,137,CN(C)c1nc2c(N)cc(Br)cc2n1C
5,104 to 106,O=[N+]([O-])c1ccc(S(=O)C2CC2)cc1 (racemic)
6,> 300,Cn1ncc(/C=C/C(=O)Nc2ccc3[nH]c(=O)oc3c2)c1-c1ccc(F)cc1
7,98 to 102,NC(=O)C1(c2c(F)cccc2Cl)CC1
8,61 to 63,Cc1noc(C)c1C(=O)Nc1ccc(-n2nc(C(F)(F)F)cc2C(F)(F)F)c(C(F)(F)F)c1
9,63 to 70,NC=C(C=O)c1cccc(C(F)(F)F)c1
10,92 to 94,CCCCOc1ccc(NC(=O)CNc2ccccc2F)cc1
11,115 to 117,CCCCCCCCCCCCCCCCNc1ccc(C(=O)OC2COC(c3ccccc3)OC2)cc1 (stereo not given)
12,88 to 90,Cc1cc(S(=O)(=O)Nc2ccc(N)cc2)c2c(C)ccc(C(C)C)cc1-2
13,128,OC[C@@H]1CCc2ccc3ncccc3c2O1
14,199 to 200,CC(C(=O)O)c1ccc(-c2ccc(OCc3nc4ccccc4s3)cc2)cc1 (stereo not given)
15,175,CCN(CCc1ccccc1OCc1ccccc1)c1ccc(C(=O)O)cc1
16,272 to 273,COc1cc2c3c(ccc([N+](=O)[O-])c3c1[N+](=O)[O-])C(=O)N(O)C2=O
17,116 to 120,Cc1cn2nc(S(=O)(=O)Cl)nc2nc1C
18,219 to 221,Cc1ccc(Oc2ccccc2-n2cc(C(=O)O)cn2)c(O)c1
19,142,COC(=O)CCc1cc2c(Cl)c(Cl)ccc2n1S(=O)(=O)c1ccccc1
20,103 to 105,N#CC1c2ccccc2Sc2ccccc21
21,62 to 63,O=Cc1cccc(COc2cccc(-c3ccsc3)c2)c1
22,111 to 113,C=C(CCC)C(=O)c1ccc(OCC(=O)O)c(Cl)c1Cl
23,227 to 231,Nc1nc(=O)n(C(=O)c2cc(F)cc(F)c2)cc1F
24,220 to 222,Cn1c(C(N)=O)nc([N+](=O)[O-])c1CBr
25,102 to 103,COC(=O)/C=C/n1cnc2c(C(C)C)cc(C(C)C)cc2c1=O

row,melting point [°C],Compound
1,113 to 115,O=C1OCCC1NS(=O)(=O)c1ccc(Cl)cc1 (racemic)
2,172 to 174,COC(=O)CC1=C(C)C(=Cc2ccc(S(=O)(=O)NC(C)=O)cc2)c2ccc(OC)cc21
3,160,COc1ccncc1-c1nc2c(N[C@H]3[C@@H](C(N)=O)[C@@H]4C=C[C@H]3C4)c(Br)cnc2[nH]1
4,121 to 122,CCC1Cc2cc(OCC(=O)O)c(Cl)c(Cl)c2C1O (stereo not given)
5,175,N#CNc1nc2ccccc2o1
6,92 to 93,COc1ccc2c(c1)OCC(NC(=O)c1cc(Cl)ccc1OC)C2 (stereo not given)
7,159 to 161,Cc1ccc(-c2ccc(O)cc2)c(-c2ccc(OCCN3CCCC3)cc2)n1
8,221 to 222,CN(Cc1ccc(NC(=O)C2=Cc3cc(-c4ccc(Cl)s4)ccc3S(=O)(=O)CC2)cc1)C1CCOCC1
9,157 to 159,COc1ccc2cc(-n3cnnc3)cc(C)c2n1
10,217 to 220,CCn1cc(Cl)c(=O)[nH]c1=O
11,177 to 178,CC(C)C[C@H](NC(=O)OCc1ccccc1)C(=O)NCCCNC(=O)[C@H](CC(C)C)NC(=O)OCc1ccccc1
12,228 to 229,Cc1nn(-c2c(Cl)cc(C(F)(F)F)cc2Cl)nc1-c1nc(C#N)c(C#N)[nH]1
13,205 to 210,O=C1CCC(=O)N1[C@H]1CC[C@H](Nc2nccc(-n3nnc4ccccc43)n2)CC1
14,130 to 132,O=C(C=Cc1ccc(Cl)cc1Cl)c1ccccc1[N+](=O)[O-]
15,71 to 78,CN(C)CCCCNC(=O)c1ccc(-c2nnc(CSCCOc3ccccc3)o2)cc1
16,272 to 274,O=C(O)c1cccc2ccc(-c3ccc([N+](=O)[O-])cc3)nc12
17,91 to 93,CCC(COS(C)(=O)=O)Nc1ccc(Cl)cc1[N+](=O)[O-] (stereo not given)
18,77 to 78,O=C(O)COCc1cccc(-c2ccccc2OC2OC(CO)C(O)C(O)C2O)c1 (stereo not given)
19,205 to 206,COc1ccc(-c2cc(-c3ccccc3)[nH]c2C(=O)Nc2cccc(CC(=O)NO)c2)cc1
20,156 to 158,O=C(NCC#Cc1ccc(C#CCNC(=O)OCc2ccccc2)nc1)OCc1ccccc1
21,200 to 201,O=C(N[C@H](Cc1ccc(C(F)(F)F)cc1)[C@@H](O)c1cccc(F)c1)c1ccc(F)c2ccccc12 (racemic)
22,82 to 84,Cc1nc(-n2cc(CCC3CCCCC3)nn2)sc1C(=O)NCc1ccccc1

row,Compound,melting point [°C]
1,CC12CCC3C(CCC4CC(=O)CC(C)(O)C43C)C1C(O)CC2=O (stereo not given),227 to 229
2,CN1CC(CNC(=N)NC(=O)c2cncc(Br)c2)CC2c3cccc4c3c(cn4C)CC21 (stereo not given),140 to 142
3,CC12C=CC(=O)CC1CCC1C2CCC2(C)C1CCC2(C)O (stereo not given),140 to 142

# Source: a melting point compilation (Tetko et al.; mined from patent text by program, amines drawn as free bases though some values may be those of a salt)
